# Experimental data: US6355799B1, “Substituted benzene compounds, process for their preparation, and herbicidal and defoliant compositions containing them” (ISK Americas Incorporated, priority 1997, dated 2002)
# Assays:
# Type in all cases: in vivo
# [1] = system: field corn (Zea mays L., var. Dekalb 535, CORN); test: Post-emerge test, crop safety; settings: phytotoxicity rating 0-100 (0 no damage, 100 complete death), 14 days after application
# Summary of the method: (§1)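 Compounds in acetone were track-sprayed at 187 l/ha, 15–1000 g ai/ha, onto sandy loam pots. Pre-emerge seeds were sown one day before spraying, with surface watering afterwards. Post-emerge plants were at the 2–3 leaf stage and sprayed with 0.25% v/v non-ionic surfactant. Injury was rated 0–100 at 14 days.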
# [2] = system: upland rice (Oryza sp., var. Tebonnet, RICE); test: Post-emerge test, crop safety; settings: phytotoxicity rating 0-100 (0 no damage, 100 complete death), 14 days after application
# Summary of the method: as §1
# [3] = system: field corn (Zea mays L., var. Dekalb 535, CORN); test: Pre-emerge test, crop safety; settings: pre-emerge, rated 14 days after application, 0 = no damage, 100 = complete death
# Summary of the method: (§2)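 Fourteen days after spraying, crop and weed injury was graded visually from 0, no effect, to 100, every plant dead. Test substances were dissolved in acetone and applied at 15–1000 g ai/ha with a flat-fan nozzle. Application was either pre-emergence, one day after sowing, or post-emergence at the 2–3 leaf stage.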
# [4] = system: upland rice (Oryza sp., var. Tebonnet, RICE); test: Pre-emerge test, crop safety; settings: pre-emerge, rated 14 days after application, 0 = no damage, 100 = complete death
# Summary of the method: as §2
# [5] = system: sicklepod (Cassia obtusifolia, CASOB); test: Pre-emerge test, greenhouse herbicide activity screening; settings: pre-emerge, rated 14 days after application, 0 = no damage, 100 = complete death
# Summary of the method: as §1
# [6] = system: green foxtail (Setaria viridis, SETVI); test: as above; settings: pre-emerge, rated 14 days after application, 0 = no damage, 100 = complete death
# Summary of the method: as §1
# [7] = system: barnyardgrass (Echinochloa crus-galli, ECHCG); test: as above; settings: pre-emerge, rated 14 days after application, 0 = no damage, 100 = complete death
# Summary of the method: as §1
# [8] = system: common ragweed (Ambrosia artemisizfolia L., AMBEL); test: as above; settings: pre-emerge, rated 14 days after application, 0 = no damage, 100 = complete death
# Summary of the method: as §1
# [9] = system: johnsongrass (Sorghum halepense, SORHA); test: as above; settings: pre-emerge, rated 14 days after application, 0 = no damage, 100 = complete death
# Summary of the method: as §1
# [10] = system: velvetleaf (Abutilon theophrasti, ABUTH); test: as above; settings: pre-emerge, rated 14 days after application, 0 = no damage, 100 = complete death
# Summary of the method: as §1
# [11] = system: lambsquarters (Chenopodium album, CHEAL); test: as above; settings: pre-emerge, rated 14 days after application, 0 = no damage, 100 = complete death
# Summary of the method: as §1
# [12] = system: ivyleaf morningglory (Ipomoea hederacea, IPOHE); test: as above; settings: pre-emerge, rated 14 days after application, 0 = no damage, 100 = complete death
# Summary of the method: as §1
# [13] = system: large crabgrass (Digitaria sanguinalis, DIGSA); test: as above; settings: pre-emerge, rated 14 days after application, 0 = no damage, 100 = complete death
# Summary of the method: as §1
# [14] = system: sicklepod (Cassia obtusifolia, CASOB); test: Post-emerge test, greenhouse herbicide activity screening; settings: phytotoxicity rating 0-100 (0 no damage, 100 complete death), 14 days after application
# Summary of the method: (§3)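 Compounds in acetone were track-sprayed at 15-1000 g ai/ha (187 l/ha) on sandy loam pots: pre-emerge one day after seeding, post-emerge at 2-3 leaf stage with 0.25% v/v non-ionic surfactant. Phytotoxicity was rated 14 days later on a 0 (no damage) to 100 (complete death) scale.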
# [15] = system: green foxtail (Setaria viridis, SETVI); test: as above; settings: phytotoxicity rating 0-100 (0 no damage, 100 complete death), 14 days after application
# Summary of the method: as §3
# [16] = system: barnyardgrass (Echinochloa crus-galli, ECHCG); test: as above; settings: phytotoxicity rating 0-100 (0 no damage, 100 complete death), 14 days after application
# Summary of the method: as §3
# [17] = system: common ragweed (Ambrosia artemisizfolia L., AMBEL); test: as above; settings: phytotoxicity rating 0-100 (0 no damage, 100 complete death), 14 days after application
# Summary of the method: as §3
# [18] = system: johnsongrass (Sorghum halepense, SORHA); test: as above; settings: phytotoxicity rating 0-100 (0 no damage, 100 complete death), 14 days after application
# Summary of the method: as §3
# [19] = system: redroot pigweed (Amaranthus retroflexus, AMARE); test: as above; settings: phytotoxicity rating 0-100 (0 no damage, 100 complete death), 14 days after application
# Summary of the method: as §3
# [20] = system: velvetleaf (Abutilon theophrasti, ABUTH); test: as above; settings: phytotoxicity rating 0-100 (0 no damage, 100 complete death), 14 days after application
# Summary of the method: as §3
# [21] = system: lambsquarters (Chenopodium album, CHEAL); test: as above; settings: phytotoxicity rating 0-100 (0 no damage, 100 complete death), 14 days after application
# Summary of the method: as §3
# [22] = system: ivyleaf morningglory (Ipomoea hederacea, IPOHE); test: as above; settings: phytotoxicity rating 0-100 (0 no damage, 100 complete death), 14 days after application
# Summary of the method: as §3
# [23] = system: large crabgrass (Digitaria sanguinalis, DIGSA); test: as above; settings: phytotoxicity rating 0-100 (0 no damage, 100 complete death), 14 days after application
# Summary of the method: as §3
# [24] = system: redroot pigweed (Amaranthus retroflexus, AMARE); test: Pre-emerge test, greenhouse herbicide activity screening; settings: pre-emerge, rated 14 days after application, 0 = no damage, 100 = complete death
# Summary of the method: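 Plants grown in 10 cm pots of sandy loam mix received acetone-dissolved compounds through a moving flat-fan nozzle. Doses ranged from 15 to 1000 g ai/ha. Pre-emerge pots were seeded one day earlier, post-emerge pots 8–21 days earlier. Fourteen days on, each pot was graded 0–100 for damage.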
smiles,measurement,setting,value
COc1c(Cl)cc(F)c(-n2c(=O)cc(C(F)(F)F)n(N)c2=O)c1N [Compound 1-13],Post-emerge Herbicidal Activity CORN (crop damage),[1]; 63 g ai/ha,20
same,Post-emerge Herbicidal Activity CORN (crop damage),[1]; 250 g ai/ha,80
same,Post-emerge Herbicidal Activity RICE (crop damage),[2]; 63 g ai/ha,30
same,Post-emerge Herbicidal Activity RICE (crop damage),[2]; 250 g ai/ha,80
same,"Pre-emerge crop damage CORN (phytotoxicity rating, scale 0-100)",[3]; 63 g ai/ha,60
same,"Pre-emerge crop damage CORN (phytotoxicity rating, scale 0-100)",[3]; 250 g ai/ha,95
same,"Pre-emerge crop damage RICE (phytotoxicity rating, scale 0-100)",[4]; 63 g ai/ha,95
same,"Pre-emerge crop damage RICE (phytotoxicity rating, scale 0-100)",[4]; 250 g ai/ha,100
same,"Pre-emerge Herbicidal Activity CASOB (phytotoxicity rating, scale 0-100)",[5]; 63 g ai/ha,80
same,"Pre-emerge Herbicidal Activity CASOB (phytotoxicity rating, scale 0-100)",[5]; 250 g ai/ha,100
same,"Pre-emerge Herbicidal Activity SETVI (phytotoxicity rating, scale 0-100)",[6]; 63 g ai/ha,100
same,"Pre-emerge Herbicidal Activity SETVI (phytotoxicity rating, scale 0-100)",[6]; 250 g ai/ha,100
same,"Pre-emerge Herbicidal Activity ECHCG (phytotoxicity rating, scale 0-100)",[7]; 63 g ai/ha,90
same,"Pre-emerge Herbicidal Activity ECHCG (phytotoxicity rating, scale 0-100)",[7]; 250 g ai/ha,100
same,"Pre-emerge Herbicidal Activity AMBEL (phytotoxicity rating, scale 0-100)",[8]; 63 g ai/ha,100
same,"Pre-emerge Herbicidal Activity AMBEL (phytotoxicity rating, scale 0-100)",[8]; 250 g ai/ha,100
same,"Pre-emerge Herbicidal Activity SORHA (phytotoxicity rating, scale 0-100)",[9]; 63 g ai/ha,95
same,"Pre-emerge Herbicidal Activity SORHA (phytotoxicity rating, scale 0-100)",[9]; 250 g ai/ha,100
same,"Pre-emerge Herbicidal Activity ABUTH (phytotoxicity rating, scale 0-100)",[10]; 63 g ai/ha,100
same,"Pre-emerge Herbicidal Activity ABUTH (phytotoxicity rating, scale 0-100)",[10]; 250 g ai/ha,100
same,"Pre-emerge Herbicidal Activity CHEAL (phytotoxicity rating, scale 0-100)",[11]; 63 g ai/ha,100
same,"Pre-emerge Herbicidal Activity CHEAL (phytotoxicity rating, scale 0-100)",[11]; 250 g ai/ha,100
same,"Pre-emerge Herbicidal Activity IPOHE (phytotoxicity rating, scale 0-100)",[12]; 63 g ai/ha,100
same,"Pre-emerge Herbicidal Activity IPOHE (phytotoxicity rating, scale 0-100)",[12]; 250 g ai/ha,100
same,"Pre-emerge Herbicidal Activity DIGSA (phytotoxicity rating, scale 0-100)",[13]; 63 g ai/ha,100
same,"Pre-emerge Herbicidal Activity DIGSA (phytotoxicity rating, scale 0-100)",[13]; 250 g ai/ha,100
same,Post-emerge Herbicidal Activity CASOB,[14]; 63 g ai/ha,30
same,Post-emerge Herbicidal Activity CASOB,[14]; 250 g ai/ha,70
same,Post-emerge Herbicidal Activity SETVI,[15]; 63 g ai/ha,30
same,Post-emerge Herbicidal Activity SETVI,[15]; 250 g ai/ha,90
same,Post-emerge Herbicidal Activity ECHCG,[16]; 63 g ai/ha,30
same,Post-emerge Herbicidal Activity ECHCG,[16]; 250 g ai/ha,70
same,Post-emerge Herbicidal Activity AMBEL,[17]; 63 g ai/ha,70
same,Post-emerge Herbicidal Activity AMBEL,[17]; 250 g ai/ha,85
same,Post-emerge Herbicidal Activity SORHA,[18]; 63 g ai/ha,10
same,Post-emerge Herbicidal Activity SORHA,[18]; 250 g ai/ha,90
same,Post-emerge Herbicidal Activity AMARE,[19]; 63 g ai/ha,100
same,Post-emerge Herbicidal Activity AMARE,[19]; 250 g ai/ha,100
same,Post-emerge Herbicidal Activity ABUTH,[20]; 63 g ai/ha,100
same,Post-emerge Herbicidal Activity ABUTH,[20]; 250 g ai/ha,100
same,Post-emerge Herbicidal Activity CHEAL,[21]; 63 g ai/ha,100
same,Post-emerge Herbicidal Activity CHEAL,[21]; 250 g ai/ha,100
same,Post-emerge Herbicidal Activity IPOHE,[22]; 63 g ai/ha,100
same,Post-emerge Herbicidal Activity IPOHE,[22]; 250 g ai/ha,100
same,Post-emerge Herbicidal Activity DIGSA,[23]; 63 g ai/ha,0
same,Post-emerge Herbicidal Activity DIGSA,[23]; 250 g ai/ha,75
same,"Pre-emerge Herbicidal Activity AMARE (phytotoxicity rating, scale 0-100)",[24]; 63 g ai/ha,100
same,"Pre-emerge Herbicidal Activity AMARE (phytotoxicity rating, scale 0-100)",[24]; 250 g ai/ha,100
